From US20170071879A1, “PROTOTYPICAL ANALGESIC PROFILE OF 3,3-DIPHENYL-N-(1-PHENYLETHYL)PROPAN-1-AMINE (FENDILINE)” (priority 2015, published 2017)
Read-outs that look alike come from different tables or passages of the source.

Experiments:
[1] = tested on: Paclitaxel induced neuropathic sensitization (PINS); experiment: Paclitaxel induced neuropathic sensitization (PINS) in the formalin test of pain; type: in vivo; details: mice; for suppression of PINS: 35-40 mn central sensitization phase, formalin induced pain
Method: Fendiline at 1 or 5 mg/kg, per os (po) suppressed the PINS by 75% or 63%, respectively, in the 35-40 mn central sensitization phase, in the formalin induced pain, in mice (Compound A1).
When fendiline was administered at 25 or 75 mg/kg (po) per os (po), PINS diminished by 181% or 275%, respectively in mice (Compound A2), i.e., less pain reaction than the control which hadn't receive Paclitaxel.

sigma-1 = sigma-1 (Homo sapiens, UniProt Q99720); experiment: sigma-1 affinity; type: binding
Sequence of sigma-1 (Q99720 whole entry): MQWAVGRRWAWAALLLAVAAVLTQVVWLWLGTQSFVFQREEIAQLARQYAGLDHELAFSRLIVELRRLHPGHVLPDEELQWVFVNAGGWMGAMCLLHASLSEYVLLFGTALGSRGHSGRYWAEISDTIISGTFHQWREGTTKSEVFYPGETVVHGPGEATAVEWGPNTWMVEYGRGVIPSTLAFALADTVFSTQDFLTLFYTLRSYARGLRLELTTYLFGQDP

sigma-2 receptors = sigma-2 receptors (Homo sapiens, UniProt Q5BJF2); experiment: sigma-2 receptor affinity; type: binding
Sequence of sigma-2 receptors (Q5BJF2 whole entry): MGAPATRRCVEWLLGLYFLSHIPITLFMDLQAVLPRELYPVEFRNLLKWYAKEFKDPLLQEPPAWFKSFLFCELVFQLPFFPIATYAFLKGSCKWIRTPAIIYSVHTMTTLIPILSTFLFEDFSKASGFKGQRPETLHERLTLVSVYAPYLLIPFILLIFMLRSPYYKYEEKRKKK

[2] = tested on: Maximal Electrochoc Seizures (MES); experiment: Maximal Electrochoc Seizures (MES); type: in vivo; details: mice
[3] = tested on: Pentylenetetrazole (PTZ) convulsions; experiment: Pentylenetetrazole (PTZ) convulsions; type: in vivo; details: mice
brain dopamine turnover [4] = experiment: brain dopamine turnover, mice; type: in vivo; details: 5-50 mg/kg ip
From the text: (§1) It could be co-administered with the μ-ORAs amplifying their analgesic activity and, more importantly, protecting against the opioid dependence of the μ-ORAs.

brain dopamine turnover [5] = experiment: brain dopamine turnover, rats; type: in vivo; details: 5-50 mg/kg ip
From the text: as §1

brain dopamine turnover [6] = details: mice; cited from earlier work
brain dopamine turnover [7] = details: rats; cited from earlier work

- Ki (sigma-1): 14 to 18 nM
- Ki (sigma-2 receptors): 730 to 850 nM
SMILES: CC(NCCC(c1ccccc1)c1ccccc1)c1ccccc1 (stereo not drawn) [Fendiline, 3,3-diphenyl-N-(1-phenylethyl) propan-1-amine]
- suppression of PINS ([1]; 1 mg/kg po): 75%
- suppression of PINS ([1]; 5 mg/kg po): 63%
- PINS diminished ([1]; 25 mg/kg po): 181%
- PINS diminished ([1]; 75 mg/kg po): 275%
- anticonvulsive activity in MES [2]: absence of anticonvulsive activities
- anticonvulsive activity in PTZ convulsions [3]: absence of anticonvulsive activities
- brain DA turnover (brain dopamine turnover [4]): decrease of the DA turnover
- brain DA turnover (brain dopamine turnover [5]): decrease of the DA turnover
- brain dopamine turnover (brain dopamine turnover [6]): decrease of the brain dopamine turnover
- brain dopamine turnover (brain dopamine turnover [7]): decrease of the brain dopamine turnover
